{"source": "patent US12012411B2", "about": "“Viral replication inhibitors” (Katholieke Universiteit Leuven, priority 2011, dated 2024)", "note": "pEC50: −log10 of the molar value.", "data": [{"tested_on": "DENV-2 NGC", "test": "Antiviral activity against DENV-2 NGC in Vero-B cells (viral RNA load by RT-qPCR)", "type": "cell-based, Dengue virus", "conditions": "Dengue virus, DENV2, Vero B, DENV-2 in Vero-B cells; inhibition of viral RNA replication by 50% (Table 3)", "values": [{"smiles": "COc1cc(CO)cc(NC(C(=O)c2nn(C)c3ccccc23)c2ccccc2)c1", "note": "(stereo not shown) [CPD-278]", "pEC50": 6.57}, {"smiles": "COc1cc(NC(C(=O)c2nn(C)c3ccccc23)c2cccnc2)cc(OC)c1", "note": "(stereo not shown) [CPD-279]", "pEC50": 6.74}, {"smiles": "COc1cccc(NC(C(=O)c2nn(C)c3cc(F)ccc23)c2ccccc2)c1", "note": "(stereo not shown) [CPD-281]", "pEC50": 6.68}, {"smiles": "COc1cc(CO)cc(NC(C(=O)c2c[nH]c3ccccc23)c2cccnc2)c1", "note": "(stereo not shown) [CPD-282]", "pEC50": 6.59}, {"smiles": "COc1cc(CO)cc(NC(C(=O)c2c[nH]c3ccccc23)c2ccc(OC)nc2)c1", "note": "(stereo not shown) [CPD-283]", "pEC50": 6.77}, {"smiles": "COc1cc(CO)cc(NC(C(=O)c2c[nH]c3cc(F)ccc23)c2ccccc2)c1", "note": "(stereo not shown) [CPD-285]", "pEC50": 7.40}, {"smiles": "COc1cc(CO)cc(NC(C(=O)c2c[nH]c3ccccc23)c2cnc(OC)cn2)c1", "note": "(stereo not shown) [CPD-288]", "pEC50": 6.92}, {"smiles": "COc1cc(CO)cc(NC(C(=O)c2c[nH]c3ccccc23)c2cc3ccccn3n2)c1", "note": "(stereo not shown) [CPD-289]", "pEC50": 7.22}, {"smiles": "COc1cc(NC(C(=O)c2c[nH]c3ccccc23)c2ccc(OC)nc2)cc(OCCO)c1", "note": "(stereo not shown) [CPD-291]", "pEC50": 7.22}, {"smiles": "COc1cc(NC(C(=O)c2c[nH]c3ccccc23)c2cnc(OC)cn2)cc(OCCO)c1", "note": "(stereo not shown) [CPD-292]", "pEC50": 7.22}, {"smiles": "COc1cccc(NC(C(=O)c2c[nH]c3ccc(F)cc23)c2cnc(OC)cn2)c1", "note": "(stereo not shown) [CPD-295]", "pEC50": 7.52}]}, {"tested_on": "DENV-1 Djibouti strain D1/H/IMTSSA/98/606", "test": "Antiviral activity against DENV-1 in Vero-B cells (viral RNA load by RT-qPCR)", "type": "cell-based, Dengue virus", "conditions": "Dengue virus, DENV1, Vero B", "values": [{"smiles": "COc1cc(CO)cc(NC(C(=O)c2nn(C)c3ccccc23)c2ccccc2)c1", "note": "(stereo not shown) [CPD-278]", "pEC50": 5.55}, {"smiles": "COc1cc(NC(C(=O)c2nn(C)c3ccccc23)c2cccnc2)cc(OC)c1", "note": "(stereo not shown) [CPD-279]", "pEC50": 6.21}, {"smiles": "COc1cccc(NC(C(=O)c2nn(C)c3cc(F)ccc23)c2ccccc2)c1", "note": "(stereo not shown) [CPD-281]", "pEC50": 6.07}, {"smiles": "COc1cc(CO)cc(NC(C(=O)c2c[nH]c3ccccc23)c2cccnc2)c1", "note": "(stereo not shown) [CPD-282]", "pEC50": 5.91}, {"smiles": "COc1cc(CO)cc(NC(C(=O)c2c[nH]c3ccccc23)c2ccc(OC)nc2)c1", "note": "(stereo not shown) [CPD-283]", "pEC50": 5.55}, {"smiles": "COc1cc(CO)cc(NC(C(=O)c2c[nH]c3cc(F)ccc23)c2ccccc2)c1", "note": "(stereo not shown) [CPD-285]", "pEC50": 6.08}, {"smiles": "COc1cc(CO)cc(NC(C(=O)c2c[nH]c3ccccc23)c2cnc(OC)cn2)c1", "note": "(stereo not shown) [CPD-288]", "pEC50": 5.72}, {"smiles": "COc1cc(CO)cc(NC(C(=O)c2c[nH]c3ccccc23)c2cc3ccccn3n2)c1", "note": "(stereo not shown) [CPD-289]", "pEC50": 6.10}, {"smiles": "COc1cc(NC(C(=O)c2c[nH]c3ccccc23)c2ccc(OC)nc2)cc(OCCO)c1", "note": "(stereo not shown) [CPD-291]", "pEC50": 6.10}, {"smiles": "COc1cc(NC(C(=O)c2c[nH]c3ccccc23)c2cnc(OC)cn2)cc(OCCO)c1", "note": "(stereo not shown) [CPD-292]", "pEC50": 6.08}, {"smiles": "COc1cccc(NC(C(=O)c2c[nH]c3ccc(F)cc23)c2cnc(OC)cn2)c1", "note": "(stereo not shown) [CPD-295]", "pEC50": 6.47}]}, {"tested_on": "DENV-3 strain H87 prototype", "test": "Antiviral activity against DENV-3 in Vero-B cells (viral RNA load by RT-qPCR)", "type": "cell-based, Dengue virus", "conditions": "Dengue virus, DENV3, Vero B", "values": [{"smiles": "COc1cc(CO)cc(NC(C(=O)c2nn(C)c3ccccc23)c2ccccc2)c1", "note": "(stereo not shown) [CPD-278]", "pEC50": 4.88}, {"smiles": "COc1cc(NC(C(=O)c2nn(C)c3ccccc23)c2cccnc2)cc(OC)c1", "note": "(stereo not shown) [CPD-279]", "pEC50": 6.05}, {"smiles": "COc1cccc(NC(C(=O)c2nn(C)c3cc(F)ccc23)c2ccccc2)c1", "note": "(stereo not shown) [CPD-281]", "pEC50": 5.25}, {"smiles": "COc1cc(CO)cc(NC(C(=O)c2c[nH]c3ccccc23)c2cccnc2)c1", "note": "(stereo not shown) [CPD-282]", "pEC50": 5.51}, {"smiles": "COc1cc(CO)cc(NC(C(=O)c2c[nH]c3ccccc23)c2ccc(OC)nc2)c1", "note": "(stereo not shown) [CPD-283]", "pEC50": 5.15}, {"smiles": "COc1cc(CO)cc(NC(C(=O)c2c[nH]c3cc(F)ccc23)c2ccccc2)c1", "note": "(stereo not shown) [CPD-285]", "pEC50": 5.66}, {"smiles": "COc1cc(CO)cc(NC(C(=O)c2c[nH]c3ccccc23)c2cnc(OC)cn2)c1", "note": "(stereo not shown) [CPD-288]", "pEC50": 5.57}, {"smiles": "COc1cc(CO)cc(NC(C(=O)c2c[nH]c3ccccc23)c2cc3ccccn3n2)c1", "note": "(stereo not shown) [CPD-289]", "pEC50": 6.04}, {"smiles": "COc1cc(NC(C(=O)c2c[nH]c3ccccc23)c2ccc(OC)nc2)cc(OCCO)c1", "note": "(stereo not shown) [CPD-291]", "pEC50": 6.10}, {"smiles": "COc1cc(NC(C(=O)c2c[nH]c3ccccc23)c2cnc(OC)cn2)cc(OCCO)c1", "note": "(stereo not shown) [CPD-292]", "pEC50": 5.95}, {"smiles": "COc1cccc(NC(C(=O)c2c[nH]c3ccc(F)cc23)c2cnc(OC)cn2)c1", "note": "(stereo not shown) [CPD-295]", "pEC50": 5.86}]}, {"tested_on": "DENV-4 strain Dak HD 34 460", "test": "Antiviral activity against DENV-4 in Vero-B cells (viral RNA load by RT-qPCR)", "type": "cell-based, Dengue virus", "conditions": "Dengue virus, DENV4, Vero B", "values": [{"smiles": "COc1cc(CO)cc(NC(C(=O)c2nn(C)c3ccccc23)c2ccccc2)c1", "note": "(stereo not shown) [CPD-278]", "pEC50": 5.24}, {"smiles": "COc1cc(NC(C(=O)c2nn(C)c3ccccc23)c2cccnc2)cc(OC)c1", "note": "(stereo not shown) [CPD-279]", "pEC50": 5.06}, {"smiles": "COc1cccc(NC(C(=O)c2nn(C)c3cc(F)ccc23)c2ccccc2)c1", "note": "(stereo not shown) [CPD-281]", "pEC50": 5.95}, {"smiles": "COc1cc(CO)cc(NC(C(=O)c2c[nH]c3ccccc23)c2cccnc2)c1", "note": "(stereo not shown) [CPD-282]", "pEC50": 4.88}, {"smiles": "COc1cc(CO)cc(NC(C(=O)c2c[nH]c3ccccc23)c2ccc(OC)nc2)c1", "note": "(stereo not shown) [CPD-283]", "pEC50": 5.10}, {"smiles": "COc1cc(CO)cc(NC(C(=O)c2c[nH]c3cc(F)ccc23)c2ccccc2)c1", "note": "(stereo not shown) [CPD-285]", "pEC50": 5.64}, {"smiles": "COc1cc(CO)cc(NC(C(=O)c2c[nH]c3ccccc23)c2cnc(OC)cn2)c1", "note": "(stereo not shown) [CPD-288]", "pEC50": 5.20}, {"smiles": "COc1cc(CO)cc(NC(C(=O)c2c[nH]c3ccccc23)c2cc3ccccn3n2)c1", "note": "(stereo not shown) [CPD-289]", "pEC50": 4.99}, {"smiles": "COc1cc(NC(C(=O)c2c[nH]c3ccccc23)c2ccc(OC)nc2)cc(OCCO)c1", "note": "(stereo not shown) [CPD-291]", "pEC50": 5.06}, {"smiles": "COc1cc(NC(C(=O)c2c[nH]c3ccccc23)c2cnc(OC)cn2)cc(OCCO)c1", "note": "(stereo not shown) [CPD-292]", "pEC50": 5.15}, {"smiles": "COc1cccc(NC(C(=O)c2c[nH]c3ccc(F)cc23)c2cnc(OC)cn2)c1", "note": "(stereo not shown) [CPD-295]", "pEC50": 5.20}]}, {"tested_on": "not listed separately", "test": "in vitro", "conditions": "African green monkey, uninfected quiescent Vero-B cells", "units": {"CC50 at 4 days": "µM"}, "values": [{"smiles": "COc1cc(CO)cc(NC(C(=O)c2nn(C)c3ccccc23)c2ccccc2)c1", "note": "(stereo not shown) [CPD-278]", "CC50 at 4 days": "> 125"}, {"smiles": "COc1cc(NC(C(=O)c2nn(C)c3ccccc23)c2cccnc2)cc(OC)c1", "note": "(stereo not shown) [CPD-279]", "CC50 at 4 days": "> 124"}, {"smiles": "COc1cccc(NC(C(=O)c2nn(C)c3cc(F)ccc23)c2ccccc2)c1", "note": "(stereo not shown) [CPD-281]", "CC50 at 4 days": "> 128"}, {"smiles": "COc1cc(CO)cc(NC(C(=O)c2c[nH]c3ccccc23)c2cccnc2)c1", "note": "(stereo not shown) [CPD-282]", "CC50 at 4 days": "> 128"}, {"smiles": "COc1cc(CO)cc(NC(C(=O)c2c[nH]c3ccccc23)c2ccc(OC)nc2)c1", "note": "(stereo not shown) [CPD-283]", "CC50 at 4 days": 56}, {"smiles": "COc1cc(CO)cc(NC(C(=O)c2c[nH]c3cc(F)ccc23)c2ccccc2)c1", "note": "(stereo not shown) [CPD-285]", "CC50 at 4 days": 50}, {"smiles": "COc1cc(CO)cc(NC(C(=O)c2c[nH]c3ccccc23)c2cnc(OC)cn2)c1", "note": "(stereo not shown) [CPD-288]", "CC50 at 4 days": 77}, {"smiles": "COc1cc(CO)cc(NC(C(=O)c2c[nH]c3ccccc23)c2cc3ccccn3n2)c1", "note": "(stereo not shown) [CPD-289]", "CC50 at 4 days": 68}, {"smiles": "COc1cc(NC(C(=O)c2c[nH]c3ccccc23)c2ccc(OC)nc2)cc(OCCO)c1", "note": "(stereo not shown) [CPD-291]", "CC50 at 4 days": 53}, {"smiles": "COc1cc(NC(C(=O)c2c[nH]c3ccccc23)c2cnc(OC)cn2)cc(OCCO)c1", "note": "(stereo not shown) [CPD-292]", "CC50 at 4 days": 68}, {"smiles": "COc1cccc(NC(C(=O)c2c[nH]c3ccc(F)cc23)c2cnc(OC)cn2)c1", "note": "(stereo not shown) [CPD-295]", "CC50 at 4 days": 18}]}]}
